For this assay, the target named is recombinant His-tag Wip1(2-420) protein (amino acids #2-420) (Homo sapiens (Human), UniProt O15297). The assay can be described thus: Wip1(2-420) phosphatase enzyme FDP assay. As to conditions: fluorescein diphosphate (FDP) substrate, RT 2 hours, fluorescence Ex485/Em535; read-out: WIP1 (Truncated 2-420) FDP Assay: IC50. Type of assay: biochemical.
Sequence of recombinant His-tag Wip1(2-420) protein (amino acids #2-420) (O15297 2-420): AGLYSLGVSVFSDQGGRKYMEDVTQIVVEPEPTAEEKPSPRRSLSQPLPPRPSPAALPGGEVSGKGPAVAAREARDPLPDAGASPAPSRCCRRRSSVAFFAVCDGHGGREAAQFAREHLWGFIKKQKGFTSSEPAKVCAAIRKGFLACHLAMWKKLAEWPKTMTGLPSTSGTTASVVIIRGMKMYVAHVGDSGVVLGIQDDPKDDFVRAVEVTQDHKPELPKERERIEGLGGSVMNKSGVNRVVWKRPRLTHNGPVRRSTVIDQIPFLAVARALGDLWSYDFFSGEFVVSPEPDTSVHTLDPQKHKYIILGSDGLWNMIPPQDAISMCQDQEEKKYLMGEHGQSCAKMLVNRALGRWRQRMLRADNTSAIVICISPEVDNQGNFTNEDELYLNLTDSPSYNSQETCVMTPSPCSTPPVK
For `Cc1ncc(Cl)cc1N[C@@H](C)c1ncc(C(=O)N[C@@H](CC2CCCC2)C(=O)NC2CC2)s1` [Compound 311, (2S)-2-({2-[(1S)-1-[(5-chloro-2-methylpyridin-3-yl)amino]ethyl]-1,3-thiazol-5-yl}formamido)-3-cyclopentyl-N-cyclopropylpropanamide], the IC50 came out at 1550 nM.
With `Cc1ncc(Cl)cc1N[C@@H](C)c1ccc(C(=O)N[C@@H](CC2CCCC2)C(=O)NC23COC(C2)C3)s1` [Compound 113, (2S)-2-({5-[(1S)-1-[(5-chloro-2-methylpyridin-3-yl)amino]ethyl]thiophen-2-yl}formamido)-3-cyclopentyl-N-{2-oxabicyclo[2.1.1]hexan-4-yl}propanamide], the IC50 was determined as 11 nM.
With `O=C(N[C@@H](CC1CCCC1)C(=O)NC1CC1)c1ccc([C@@H]2CCc3c(Cl)cccc3N2)s1` [Compound 250, (2S)-2-({5-[(2S)-5-chloro-1,2,3,4-tetrahydroquinolin-2-yl]thiophen-2-yl}formamido)-3-cyclopentyl-N-cyclopropylpropanamide] the figure was 301 nM; with `Cc1ncc(Cl)cc1NC(c1ccc(C(=O)N[C@@H](CC2CCCC2)C(=O)NC2CC2)s1)C(F)(F)F` (stereo partly drawn) [Compound 224, (2S)-2-[(5-{1-[(5-chloro-2-methylpyridin-3-yl)amino]-2,2,2-trifluoroethyl}thiophen-2-yl)formamido]-3-cyclopentyl-N-cyclopropylpropanamide], 132 nM; with `Cc1ncc(Cl)cc1N[C@@H](C)c1ccc(C(=O)N[C@@H](CCC(C)C)C(=O)NC2CC2)s1` [Compound 217, (2S)-2-({5-[(1S)-1-[(5-chloro-2-methylpyridin-3-yl)amino]ethyl]thiophen-2-yl}formamido)-N-cyclopropyl-5-methylhexanamide], 27 nM.
With `Cc1ncc(Cl)cc1N[C@@H](C)c1ccc(C(=O)N[C@@H](CC2CCCC2)C(=O)Nc2cnn(C(C)(C)C)c2)s1` [Compound 149, (2S)-N-(1-tert-butyl-1H-pyrazol-4-yl)-2-({5-[(1S)-1-[(5-chloro-2-methylpyridin-3-yl)amino]ethyl]thiophen-2-yl}formamido)-3-cyclopentylpropanamide], the IC50 was determined as 6 nM.
Turning to `Cc1ncc(Cl)cc1N[C@@H](C)c1ccc(C(=O)N[C@@H](CC2CCCC2)C(=O)Nc2ccn(C)n2)s1` [Compound 154, (2S)-2-({5-[(1S)-1-[(5-chloro-2-methylpyridin-3-yl)amino]ethyl]thiophen-2-yl}formamido)-3-cyclopentyl-N-(1-methyl-1H-pyrazol-3-yl)propanamide], the IC50 is 10 nM.
With `C[C@@H](Nc1cc(Cl)cnc1C(C)(C)O)c1ccc(C(=O)N[C@@H](CC2CCCC2)C(=O)NC2CC2)s1` [Compound 193, (2S)-2-({5-[(1R)-1-{[5-chloro-2-(2-hydroxypropan-2-yl)pyridin-3-yl]amino}ethyl]thiophen-2-yl}formamido)-3-cyclopentyl-N-cyclopropylpropanamide] the figure was 316 nM.
Under `C[C@@H](Nc1cc(Cl)cnc1C(N)=O)c1ccc(C(=O)N[C@@H](CC2CCCC2)C(=O)Nc2cnn(C)c2)s1` [Compound 137, 5-chloro-3-{[(1R)-1-(5-{[(1S)-2-cyclopentyl-1-[(1-methyl-1H-pyrazol-4-yl)carbamoyl]ethyl]carbamoyl}thiophen-2-yl)ethyl]amino}pyridine-2-carboxamide] stands 54 nM; under `COc1ccc(-c2ncc(Cl)cc2N[C@@H](C)c2ccc(C(=O)N[C@@H](CC3CCCC3)C(=O)NC3CC3)s2)cc1` [Compound 236, (2S)-2-({5-[(1S)-1-{[5-chloro-2-(4-methoxyphenyl)pyridin-3-yl]amino}ethyl]thiophen-2-yl}formamido)-3-cyclopentyl-N-cyclopropylpropanamide], 7 nM.
As to `C[C@@H](c1ccc(C(=O)N[C@@H](CC2CCCC2)C(=O)NC23CC(C2)C3)s1)N(C)c1cncc(Cl)c1` [Compound 96, (2S)-N-{bicyclo[1.1.1]pentan-1-yl}-2-({5-[(1S)-1-[(5-chloropyridin-3-yl)(methyl)amino]ethyl]thiophen-2-yl}formamido)-3-cyclopentylpropanamide], the IC50 turned out to be 76 nM.
Take `Cc1ncc(Cl)cc1N[C@@H](C)c1ccc(C(=O)N[C@H](C(=O)NC2CC2)C2CCCCC2)s1` [Compound 174, (2S)-2-({5-[(1S)-1-[(5-chloro-2-methylpyridin-3-yl)amino]ethyl]thiophen-2-yl}formamido)-2-cyclohexyl-N-cyclopropylacetamide]: the IC50 is 37 nM.
With `COCCOCCNC(=O)[C@H](CC1CCCC1)NC(=O)c1ccc([C@H](C)Nc2cc(Cl)cnc2C)s1` [Compound 204, (2S)-2-({5-[(1S)-1-[(5-chloro-2-methylpyridin-3-yl)amino]ethyl]thiophen-2-yl}formamido)-3-cyclopentyl-N-[2-(2-methoxyethoxy)ethyl]propanamide] the figure was 102 nM; with `Cc1ncc(Cl)cc1N[C@@H](C)c1ccc(C(=O)N[C@@H](CC2CCCCC2)C(=O)NC2CC2)s1` [Compound 107, (2S)-2-({5-[(1S)-1-[(5-chloro-2-methylpyridin-3-yl)amino]ethyl]thiophen-2-yl}formamido)-3-cyclohexyl-N-cyclopropylpropanamide], 4 nM.
Consider `Cc1ncc(Cl)cc1N[C@@H](C)c1ccc(C(=O)N[C@@H](C[C@@H]2CCC3CC32)C(=O)NC23CC(C2)C3)s1` (stereo partly drawn) [Compound 245, (2S)-N-{bicyclo[1.1.1]pentan-1-yl}-3-[(2S)-bicyclo[3.1.0]hexan-2-yl]-2-({5-[(1S)-1-[(5-chloro-2-methylpyridin-3-yl)amino]ethyl]thiophen-2-yl}formamido)propanamide], for which the half-inhibitory concentration (IC50) stood at 10 nM.
With `Cc1ncc(Cl)cc1N[C@@H](C)c1ccc(C(=O)N[C@@H](CC2CCCC2)C(=O)NC2CCC(O)C2)s1` (stereo partly drawn) [Compound 263, (2S)-2-({5-[(1S)-1-[(5-chloro-2-methylpyridin-3-yl)amino]ethyl]thiophen-2-yl}formamido)-3-cyclopentyl-N-(3-hydroxycyclopentyl)propanamide] the figure was 13 nM; with `Cc1ncc(Cl)cc1N[C@@H](Cc1ccccc1)c1ccc(C(=O)N[C@@H](CC2CCCC2)C(=O)NC23CC(C#N)(C2)C3)s1` [Compound 214, (2S)-2-({5-[(1S)-1-[(5-chloro-2-methylpyridin-3-yl)amino]-2-phenylethyl]thiophen-2-yl}formamido)-N-{3-cyanobicyclo[1.1.1]pentan-1-yl}-3-cyclopentylpropanamide], 20 nM.
With `Cc1ncc(Cl)cc1N[C@@H](c1ccc(C(=O)N[C@@H](CC2CCCC2)C(=O)NC2CC2)s1)C(F)(F)F` [Compound 184, (2S)-2-({5-[(1R)-1-[(5-chloro-2-methylpyridin-3-yl)amino]-2,2,2-trifluoroethyl]thiophen-2-yl}formamido)-3-cyclopentyl-N-cyclopropylpropanamide] the figure was 131 nM; with `Cc1ncc(Cl)cc1N[C@@H](C)c1ccc(C(=O)N[C@@H](C[C@H]2CCC3C[C@@H]32)C(=O)NC2CC2)s1` (stereo partly drawn) [Compound 272, (2S)-3-[(2R)-bicyclo[3.1.0]hexan-2-yl]-2-({5-[(1S)-1-[(5-chloro-2-methylpyridin-3-yl)amino]ethyl]thiophen-2-yl}formamido)-N-cyclopropylpropanamide], 14 nM.
Consider `C[C@H](Nc1cc(Cl)cnc1CO)c1ccc(C(=O)N[C@@H](CC2CCCC2)C(=O)NC2CC2)s1` [Compound 105, (2S)-2-({5-[(1S)-1-{[5-chloro-2-(hydroxymethyl)129yridine-3-yl]amino}ethyl]thiophen-2-yl}formamido)-3-cyclopentyl-N-cyclopropylpropanamide], for which the IC50 is 18 nM.
With `Cc1ncc(Cl)cc1N[C@@H](Cn1cccn1)c1ccc(C(=O)N[C@@H](CC2CCCC2)C(=O)NC2CC2)s1` [Compound 166, (2S)-2-({5-[(1S)-1-[(5-chloro-2-methylpyridin-3-yl)amino]-2-(1H-pyrazol-1-yl)ethyl]thiophen-2-yl}formamido)-3-cyclopentyl-N-cyclopropylpropanamide] the figure was 7 nM.
With `Cc1ncc(Cl)cc1N[C@H](C)c1ccc(C(=O)N[C@@H](CC2CCCC2)C(=O)N[C@@H]2CC2(F)F)s1` [Compound 22, (2S)-2-({5-[(1R)-1-[(5-chloro-2-methylpyridin-3-yl)amino]ethyl]thiophen-2-yl}formamido)-3-cyclopentyl-N-[(1R)-2,2-difluorocyclopropyl]propanamide] the figure was 314 nM; with `CC(Nc1cc(Cl)cnc1C(C)(C)O)c1ccc(C(=O)N[C@@H](CC2CCCC2)C(=O)NC2CC2)s1` (stereo partly drawn) [Compound 203, (2S)-2-{[5-(1-{[5-chloro-2-(2-hydroxypropan-2-yl)pyridin-3-yl]amino}ethyl)thiophen-2-yl]formamido}-3-cyclopentyl-N-cyclopropylpropanamide], 17 nM.
With `COC[C@H](Nc1cc(Cl)cnc1C)c1ccc(C(=O)N[C@@H](CC2CCCC2)C(=O)NC2CC2)s1` [Compound 159, (2S)-2-({5-[(1S)-1-[(5-chloro-2-methylpyridin-3-yl)amino]-2-methoxyethyl]thiophen-2-yl}formamido)-3-cyclopentyl-N-cyclopropylpropanamide], the IC50 is 13 nM.
Under `C[C@H](Nc1cc(Cl)cnc1C(N)=O)c1ccc(C(=O)N[C@@H](CC2CCCC2)C(=O)NC23CC(C2)C3)s1` [Compound 133, 3-{[(1S)-1-(5-{[(1S)-1-({bicyclo[1.1.1]pentan-1-yl}carbamoyl)-2-cyclopentylethyl]carbamoyl}thiophen-2-yl)ethyl]amino}-5-chloropyridine-2-carboxamide] stands 4 nM; under `Cc1ncc(Cl)cc1N[C@@H](C)c1ccc(C(=O)N[C@@H](CC2CCCC2)C(=O)Nc2ccc(C(N)=O)nc2)s1` [Compound 153, 5-[(2S)-2-({5-[(1S)-1-[(5-chloro-2-methylpyridin-3-yl)amino]ethyl]thiophen-2-yl}formamido)-3-cyclopentylpropanamido]pyridine-2-carboxamide], 5 nM.

What is called IC50 is the concentration at which inhibition is half-maximal.

These data come from US20240116910A1, “Heterocycles as WIP1 Inhibitors” (PMV Pharmaceuticals, Inc., priority 2022, published 2024).
